Data: patent publication US6849421B2, “Assays for compounds modulating human serine protease C-E” (Ortho-McNeil Pharmaceutical, Inc., priority 1999, dated 2005)
Ends that are not written are not given here. * marks the point of attachment. pNA = O=[N+]([O-])c1ccc(N*)cc1

T1: activated protease C-E-6XHIS (Homo sapiens, UniProt Q9GZN4)
T1 construct: made in house; host or cells: Sf9 insect cells (baculovirus, pFastBac1)
T1 sequence (Q9GZN4 with tags, fused parts or gaps): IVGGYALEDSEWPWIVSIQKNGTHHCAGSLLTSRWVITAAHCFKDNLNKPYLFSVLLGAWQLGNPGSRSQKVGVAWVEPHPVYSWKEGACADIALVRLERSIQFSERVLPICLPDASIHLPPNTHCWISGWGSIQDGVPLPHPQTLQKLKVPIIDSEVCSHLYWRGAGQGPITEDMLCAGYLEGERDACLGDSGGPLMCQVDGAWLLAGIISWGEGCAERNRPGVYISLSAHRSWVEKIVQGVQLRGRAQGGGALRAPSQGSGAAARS


Experiments:
[1] = target: T1, activated protease C-E-6XHIS; assay: Chromogenic amidolytic activity assay, release of para-nitroaniline (pNA) from synthetic substrates; assay type: biochemical; conditions: recombinant activated protease C-E-6XHIS; substrate 500 uM; 10 mM Tris-HCl pH 7.8, 25 mM NaCl, 25 mM imidazole; 37° C., 90 minutes; 405 nm; N.A. = No Activity
Experimental: Eluted protein concentration was determined by a Micro BCA Kit (Pierce, Rockford, Ill.) using bovine serum albumin as a standard. Amidolytic activities of the activated protease C-E-6XHIS was monitored by release of para-nitroaniline (pNA) from the synthetic substrates indicated in Table 1. The chromogenic substrates used in these studies were all commercially available (Bachem California Inc., Torrance, Pa.; American Diagnostica Inc., Greenwich, Conn.; Kabi Pharmacia Hepar Inc., Franklin, Ohio). Assay mixtures contained chromogenic substrates at 500 uM and 10 mM Tris-HCl (pH 7.8), 25 mM NaCl, and 25 mM imidazole. Release of pNA was measured over 90 minutes at 37° C. on a micro-plate reader (Molecular Devices, Menlo Park, Calif.) with a 405 mn absorbance filter. The initial reaction rates (Vmax, mOD/min) were determined from plots of absorbance versus time using Softmax (Molecular Devices, Menlo Park, Calif.). The specific activities (nmole pNA produced/min/μg protein) of the activated protease C-E-6XHIS for the various substrates are presented in Table 1.
Amidolytic activities of the activated serine proteases are monitored by release of para-nitroaniline (pNA) from synthetic substrates that are commercially available (Bachem California Inc., Torrance, Pa.; American Diagnostica Inc., Greenwich, Conn.; Kabi Pharmacia Hepar Inc., Franklin, Ohio). Assay mixtures contain chromogenic substrates in 500 uM and 10 mM TRIS-HCl (pH 7.8), 25 mM NaCl, and 25 mM imidazole. Release of pNA is measured over 120 min at 37° C. on a micro-plate reader (Molecular Devices, Menlo Park, Calif.) with a 405 nm absorbance filter. The initial reaction rates (Vmax, mOD/min) are determined from plots of absorbance versus time using Softmax (Molecular Devices, Menlo Park, Calif.). […] Although in the present case chromogenic activity is monitored by an increase in absorbance, fluorogenic assays or other methods such as FRET to measure proteolytic activity as mentioned above, can be employed. […]

[2] = Chromogenic amidolytic activity of the purified unactivated zymogen; assay type: biochemical, human; conditions: not cleaved with enterokinase, same chromogenic substrates

| Molecule | Specific Activity [1] | chromogenic amidolytic activity [2] |
| --- | --- | --- |
| H—D—Lys(CBO)—Pro—Arg—pNA | 0.002 ± 0.000 nmole pNA produced/min/μg protein | – |
| H—D—Pro—HHT—Arg—pNA | 0.008 ± 0.001 nmole pNA produced/min/μg protein | – |
| Phe-Arg-pNA | 0.058 ± 0.006 nmole pNA produced/min/μg protein | – |
| PFEK-protease C-E-6XHIS zymogen: secreted recombinant zymogen of human serine protease C-E catalytic domain with FLAG, enterokinase site and 6XHIS tag, from Sf9 cells (protein) MDSKGSSQKSRLLLLLVVSNLLLCQGVVSDYKDDDDVDAAALAAPFDDDDKIVGGYALEDSEWPWIVSIQKNGTHHCAGSLLTSRWVITAAHCFKDNLNKPYLFSVLLGAWQLGNPGSRSQKVGVAWVEPHPVYSWKEGACADIALVRLERSIQFSERVLPICLPDASIHLPPNTHCWISGWGSIQDGVPLPHPQTLQKLKVPIIDSEVCSHLYWRGAGQGPITEDMLCAGYLEGERDACLGDSGGPLMCQVDGAWLLAGIISWGEGCAERNRPGVYISLSAHRSWVEKIVQGVQLRGRAQGGGALRAPSQGSGAAARSSRHHHHHH | – | No measurable chromogenic amidolytic activity |
